According to patent US20150025131A1 (priority 2013, published 2015):
In brackets after ≈: the same amount, converted by molar mass.

How the values were obtained:
[1] = system: ROS production from mice peritoneal macrophages; assay: Luminol enhanced chemiluminescence oxidative burst, mice peritoneal macrophages; type: cell-based; conditions: Mus musculus, Peritoneal macrophage, serum opsonized zymosan, read-out: Myeloperoxidase dependent Oxidative Burst (IC50 μg/mL) Macrophages
Method: Intracellular effect was determined using human peripheral whole blood phagocytes and isolated neutrophils and from mice peritoneum macrophages, where luminol-enhanced chemillumenescence assay was applied. The effect on myeloperoxidase independent ROS production was determined using lucigenin on murine macrophages RAW.267 cells.
Table 2. […] 267 cells (murine macrophages). DPI is used as standard drug. Reading presents mean±SD of three determinations.
NMRI mice of 25 to 30 gm weight were injected aseptically with 1 mL of heat inactivated fetal bovine serum (FBS) in the peritoneum cavity, using sterile 1 mL syringe and mice were kept for further 72 h. […] Cells were counted and concentration was adjusted to 1×10^6/mL for chemiluminescence assay.
Luminol enhanced chemiluminescence technique was applied to study the effect of compound on ROS from phagocytes, Using whole blood, neutrophil and macrophages Briefly, 25 μL diluted whole blood (1:50 dilution in sterile HBSS^++) or 25 μL of PMNs (1×10^6), or 25 μL of isolated macrophages (1×10^6) were incubated with 25 μL of compound in triplicates and using three different concentrations (1, 10 and 100 μg/mL) using white 96 wells plates. […] Results were monitored as relative light unit (RLU) reading, with peak and total integral values set with repeated scans at 60 seconds intervals, and 1 second points measuring time.

[2] = system: PHA activated T cells isolated from human peripheral blood; assay: Thymidine incorporation T cell proliferation assay (PHA activated); type: cell-based; conditions: Homo sapiens, T-cell, 72 h, read-out: Human T cell proliferation (IC50 μg/mL)
Method: Heparinized blood was obtained by vein puncture aseptically from healthy volunteers (25-38 years age). Blood (10 mL) was mixed with incomplete RPMI, layered on 5 mL of Lymphocyte separation medium and centrifuged at 400 g for 20 min at room temperature. Buffy layer was collected and mixed with incomplete RPMI and centrifuged at 4° C. for 10 min at 300 g. Cells were obtained after the RBCs (if any) lysis using hypotonic solution, and washed at 4° C. for 10 min at 300 g. The cells were then suspended in complete RPMI containing 5% FBS and their concentration was adjusted to 2×10^6 cells/mL for T-cell proliferation assay.
Cell proliferation assay was conducted through standard thymidine incorporation technique. Briefly, isolated T-cells from peripheral blood of healthy individuals were plated at a concentration of 2×10^6 cells/mL in a round bottom 96-well tissue culture plates. Cells were stimulated with 7.5 μg/mL of PHA. […] The plate was then incubated for 72 hours at 37° C. in 5% CO2 incubator. After 72 hours, cultures were pulsed with 0.5 μCi/well tritiated thymidine (Amersham Pharmacia Biotech), and further incubated for 18 h. Cells were harvested onto a glass fiber filters using cell harvester (Innotech, Dottikon, Switzerland). The level of the thymidine incorporated into the cells was measured by a liquid scintillation counter (LS 6500, Beckman Coulter, Fullerton, Calif., USA). Results were expressed as mean count per minute (CPM). The inhibitory activity of compounds on T-lymphocyte proliferation was calculated using the following formula: […]

COc1c(O)cc2oc(-c3ccc(O)c(O)c3)c(O)c(=O)c2c1O [Patuletin, 3,5,7,3′,4′-pentahydroxy-6-methoxy flavones]
IC50 [1]: 1.9 µg/mL | IC50 [2]: 1.2 µg/mL (≈ 3.61 µM)
